The values that follow are results of earlier work, collected in patent US20140228595A1, “PROCESSES FOR PRODUCING HEXANEDIOL (HDO), HEXAMETHYLENEDIAMINE (HMD), ADIPONITRILE (ADN), ADIPAMIDE (ADM) AND DERIVATIVES THEREOF” (BioAmber S.A.S., priority 2011, published 2014).

For `O=C(O)CCCCC(=O)O` [AA, adipic acid], where the note is “Table 1, Run 1”, the pKa1 is 4.43. The “pKa of the second acid group of AA” value (second acid group) is listed as 5.1.
